Assay results: patent US20250339408A1, “TREATMENT AND PREVENTION OF BASAL CELL CARCINOMA WITH TOPICAL COMPOSITION COMPRISING PATIDEGIB” (Sol-Gel Technologies Ltd., priority 2023, published 2025)

Tested on: basal cell carcinoma (BCC) lesions on the face
Experiment: Randomized, double-blind, vehicle-controlled study of Patidegib Topical Gel, 2% in Gorlin syndrome participants with PTCH1 mutation (Example 2)
Assay type: in vivo, human
Source text: The term “nSEB” refers to BCCs with a longest diameter of ≥5 mm that: • a. were not surgically eligible BCCs (SEBs) at baseline; • b. have grown by ≥2 mm in longest diameter from baseline; and • c. have been verified histologically.
The term “SEB” refers to surgically eligible BCCs with a longest diameter of ≥5 mm.
The term “resolved SEB lesions” refers to BCCs lesions which no longer requires a surgical removal treatment. In another embodiment the term “resolved SEB lesions” refers to BCCs lesions with a diameter <5 mm or the BCC lesions are completely disappeared.
A randomized, double-blind, stratified, vehicle-controlled study was done, measuring the efficacy and safety of Patidegib Topical Gel, 2%, applied topically twice daily to the face of adult participants with Gorlin syndrome. The Participants were required to apply the investigational product for 12 months. The primary endpoint is a comparison between the two treatment—Patidegib Topical Gel, 2%, versus Vehicle, resulted the of the number of new BCCs that develop over the 12 month period.
Participants will be randomized to receive Patidegib Topical Gel, 2%. The Patidegib Topical Gel, 2% will be dispensed to participants at each study visit and applied topically twice daily to the face.
Participants will be randomized to receive Vehicle. The Patidegib Topical Gel, Vehicle will be dispensed to participants at each study visit and applied topically twice daily to the face.
• 1. The participant must be age at least 18 years of age at the Screening Visit. • 2. The participant must provide written informed consent prior to any study procedures. • 3. The participant must meet diagnostic criteria for the basal cell nevus (Gorlin) syndrome including PTCH1 gene mutation, or at least 6 histologically confirmed facial BCC lesions at Baseline and PTCH1 gene mutation. • 4. The participant is willing to have blood collected to measure circulating drug levels. • 5. The participant is willing to abstain from application of a non-study topical medication (prescription or over the counter) to facial skin for the duration of the trial except as prescribed by the Investigator. Moisturizers and emollients are allowed. Participant will be encouraged to use their preferred sunscreen with a sun protector factor (SPF) of at least 30 daily on all exposed skin sites. • 6. If the participant is a woman of childbearing potential (WOCBP), they must be willing to use complete abstinence from sexual intercourse and/or they and their partner must be willing to use at least 2 highly-effective forms of birth control starting prior to Baseline, through the duration of the study, and for 12 months after last application of IP. • 7. If the participant is a male with a female sex partner who is a WOCBP, the participant must be willing to use condoms, even after a vasectomy, starting prior to Baseline, through the duration of the study, and for at least 8 months after the last application of IP. • 8. The participant is willing for all facial BCCs to be evaluated and treatment recommendations made only by the Investigator. • 9. The participant is willing to forego treatment of facial BCCs with anything other than the study IP except when the Investigator believes that delay of treatment of a facial BCC potentially might compromise the health of the subject. During the trial the only allowed form of treatment is surgical. Non-facial BCCs may be removed at the discretion of the Investigator or Primary Skin Care Physician (PSCP).
• 1. The subject has previously participated in a clinical trial evaluating patidegib topical gel. • 2. The participant has used topical treatment to the face or systemic therapies that might interfere with the evaluation of the study IP. Among these are use of the following: • a. 5-fluorouracil, imiquimod, diclofenac, or Ingenol mebutate (except as topical treatment to discrete non-facial BCCs) systemically or topically to the skin within the 2 months prior to the Screening Visit. • b. […]

[1] = PTCH1 mutation, baseline total facial BCC lesions at least 6, gel 2% twice daily to face, month 3
[2] = PTCH1 mutation, baseline total facial BCC lesions at least 6, gel 2% twice daily to face, month 6
[3] = PTCH1 mutation, baseline total facial BCC lesions at least 6, gel 2% twice daily to face, month 9
[4] = PTCH1 mutation, baseline total facial BCC lesions at least 6, gel 2% twice daily to face, month 12
[5] = PTCH1 mutation, baseline total facial BCC lesions at least 8, gel 2% twice daily to face, month 3
[6] = PTCH1 mutation, baseline total facial BCC lesions at least 8, gel 2% twice daily to face, month 6
[7] = PTCH1 mutation, baseline total facial BCC lesions at least 8, gel 2% twice daily to face, month 9
[8] = PTCH1 mutation, baseline total facial BCC lesions at least 8, gel 2% twice daily to face, month 12
[9] = PTCH1 mutation, baseline total facial BCC lesions at least 10, gel 2% twice daily to face, month 3
[10] = PTCH1 mutation, baseline total facial BCC lesions at least 10, gel 2% twice daily to face, month 6
[11] = PTCH1 mutation, baseline total facial BCC lesions at least 10, gel 2% twice daily to face, month 9
[12] = PTCH1 mutation, baseline total facial BCC lesions at least 10, gel 2% twice daily to face, month 12
[13] = PTCH1 mutation, gel 2% twice daily to face
[14] = PTCH1 mutation, gel 2% twice daily to face, month 3
[15] = PTCH1 mutation, gel 2% twice daily to face, month 6
[16] = PTCH1 mutation, gel 2% twice daily to face, month 9
[17] = PTCH1 mutation, gel 2% twice daily to face, month 12
[18] = per subject, PTCH1 mutation, by month 12
[19] = per subject, more than 6 BCC lesions at baseline, Baseline to month 12

CC1=C2C[C@H]3[C@@H](CC[C@@H]4C[C@H](NS(C)(=O)=O)CC[C@@]43C)[C@@H]2CC[C@@]2(C1)O[C@@H]1C[C@H](C)CN[C@H]1[C@H]2C [Patidegib]
Overall efficacy in treating or preventing BCC lesions (in words) (Gorlin syndrome with genetic mutation PTCH1): effective in treating or preventing BCC lesions
Number of qualifying nSEBs, observed, Mean (PTCH1 mutation, baseline total BCC facial lesions at least 6, gel 2% twice daily to face, month 3): 0.28
Number of qualifying nSEBs, observed, Mean (PTCH1 mutation, baseline total BCC facial lesions at least 6, gel 2% twice daily to face, month 6): 0.42
Number of qualifying nSEBs, observed, Mean (PTCH1 mutation, baseline total BCC facial lesions at least 6, gel 2% twice daily to face, month 9): 0.83
Number of qualifying nSEBs, observed, Mean (PTCH1 mutation, baseline total BCC facial lesions at least 6, gel 2% twice daily to face, month 12): 0.47
Number of new BCCs excluding no longer suspicious BCCs, observed, Mean [1]: 0.80
Proportion of SEBs clinically resolved, observed, Mean [1]: 6.61
Number of new BCCs excluding no longer suspicious BCCs, observed, Mean [2]: 1.68
Proportion of SEBs clinically resolved, observed, Mean [2]: 3.11
Number of new BCCs excluding no longer suspicious BCCs, observed, Mean [3]: 2.49
Proportion of SEBs clinically resolved, observed, Mean [3]: 10.22
Number of new BCCs excluding no longer suspicious BCCs, observed, Mean [4]: 2.78
Proportion of SEBs clinically resolved, observed, Mean [4]: 18.79
Number of new BCCs excluding no longer suspicious BCCs, observed, Mean [5]: 0.94
Number of qualifying nSEBs, observed, Mean [5]: 0.31
Proportion of SEBs clinically resolved, observed, Mean [5]: 5.98
Number of new BCCs excluding no longer suspicious BCCs, observed, Mean [6]: 1.96
Number of qualifying nSEBs, observed, Mean [6]: 0.52
Proportion of SEBs clinically resolved, observed, Mean [6]: 1.30
Number of new BCCs excluding no longer suspicious BCCs, observed, Mean [7]: 2.71
Number of qualifying nSEBs, observed, Mean [7]: 0.96
Proportion of SEBs clinically resolved, observed, Mean [7]: 8.73
Number of new BCCs excluding no longer suspicious BCCs, observed, Mean [8]: 2.96
Number of qualifying nSEBs, observed, Mean [8]: 0.52
Proportion of SEBs clinically resolved, observed, Mean [8]: 12.84
Number of new BCCs excluding no longer suspicious BCCs, observed, Mean [9]: 1.00
Number of qualifying nSEBs, observed, Mean [9]: 0.41
Proportion of SEBs clinically resolved, observed, Mean [9]: 8.50
Number of new BCCs excluding no longer suspicious BCCs, observed, Mean [10]: 1.93
Number of qualifying nSEBs, observed, Mean [10]: 0.64
Proportion of SEBs clinically resolved, observed, Mean [10]: 2.05
Number of new BCCs excluding no longer suspicious BCCs, observed, Mean [11]: 2.56
Number of qualifying nSEBs, observed, Mean [11]: 1.00
Proportion of SEBs clinically resolved, observed, Mean [11]: 13.39
Number of new BCCs excluding no longer suspicious BCCs, observed, Mean [12]: 2.88
Number of qualifying nSEBs, observed, Mean [12]: 0.56
Proportion of SEBs clinically resolved, observed, Mean [12]: 16.89
LS Mean for new BCCs per year (Std Err) [13]: 2.83
Predicted new BCCs per year using observed covariates (95% CI) [13]: 3.09
Number of new BCCs excluding no longer suspicious BCCs, observed, Mean [14]: 0.69
Number of qualifying nSEBs, observed, Mean [14]: 0.21
Proportion of SEBs clinically resolved, observed, Mean [14]: 5.42
Number of new BCCs excluding no longer suspicious BCCs, observed, Mean [15]: 1.59
Number of qualifying nSEBs, observed, Mean [15]: 0.38
Proportion of SEBs clinically resolved, observed, Mean [15]: 2.76
Number of new BCCs excluding no longer suspicious BCCs, observed, Mean [16]: 2.17
Number of qualifying nSEBs, observed, Mean [16]: 0.70
Proportion of SEBs clinically resolved, observed, Mean [16]: 8.11
Number of new BCCs excluding no longer suspicious BCCs, observed, Mean [17]: 2.61
Number of qualifying nSEBs, observed, Mean [17]: 0.50
Proportion of SEBs clinically resolved, observed, Mean [17]: 14.68
Total new BCCs (all subjects of the arm, PTCH1 mutation, by month 12): 114
Total BCCs surgeries from Baseline to month 12 (all subjects of the arm, more than 6 BCC lesions at baseline): 14
Rate-ratio: Patidegib/Vehicle (Std Err) (new BCCs per year, PTCH1 mutation): 0.91
Number of new BCCs by Month 12 - Max [18]: 8
Number of new BCCs by Month 12 - Median [18]: 2.0
Number of new BCCs by Month 12 - Min [18]: 0
Number of new BCCs by Month 12 - Q1 [18]: 1.0
Number of new BCCs by Month 12 - Q3 [18]: 5.0
Number of new BCCs by Month 12 - Mean (SD) (per subject, PTCH1 mutation, gel 2% twice daily to face, by month 12): 3.08
Number of BCCs surgeries - Max [19]: 5
Number of BCCs surgeries - Median [19]: 0.0
Number of BCCs surgeries - Min [19]: 0
Number of BCCs surgeries - Q1 [19]: 0
Number of BCCs surgeries - Q3 [19]: 1
Number of BCCs surgeries - Mean (SD) (per subject, more than 6 BCC lesions at baseline, Baseline to month 12, gel 2% twice daily to face): 0.6 (1.47)
